Measured values reported in PMC6828666, “Discovery of holoenzyme-disrupting chemicals as substrate-selective CK2 inhibitors” (Scientific Reports, 2019).
Where a name gives a salt, the structure may show the parent alone.

Legend:
[1] = system: panels of different kinases; design: method as in PMID 28451126; details: cited from earlier work
[2] = target: T1, CK2α2β2 holoenzyme (Homo sapiens, UniProt P68400); experiment: CK2 kinase assay with CK2β-dependent peptide substrate (eIF2-derived); format: biochemical; details: compound at 50 μM; CK2β-dependent peptide substrate
T1 construct: made in house; host or cells: Escherichia coli (CK2α)
Method: First, all the compounds were dissolved at 200 μM in 50 mM Tris-HCl pH 7.5 buffer containing 0.1 M NaCl and 5% DMSO; the compounds that precipitated under these conditions were discarded. The 32 remaining compounds were diluted at 200 μM in the kinase buffer and centrifuged at 14,000 g. The supernatant was then assayed for ability to inhibit phosphorylation of a CK2β-dependent peptide substrate. For this, a 22-residue long N-terminal fragment of the eukaryotic translation initiation factor 2 (eIF2), known to be exclusively phosphorylated by the CK2α2β2 holoenzyme[4] was used as a substrate. […]
Final concentration of ATP was 100 μM. Assays were performed under linear kinetic conditions for 5 min at room temperature before termination by the addition of 60 μL of 4% TCA. ^32P incorporation in peptide substrate was determined as previously described. […]

[3] = target: CK2α (Homo sapiens, UniProt P68400); experiment: SPR binding studies on captured GST-CK2α; details: surface plasmon resonance
Method: SPR competition studies (Fig. 2i) were performed using a BIAcore 3000 instrument (BIAcore AB) equipped with a CM5 sensor chip (BIAcore AB). After activation with a solution of N-hydroxysuccinimide and N-ethyl-N-(dimethylaminopropyl)carbodiimide hydrochloride (coupling solution BIAcore AB), the anti-GST antibody diluted at 30 μg/ml in 10 mM acetate buffer pH 5.0 was injected at a flow rate of 5 μL/min for 7 min. All the surfaces were blocked with a 3 min injection at 10 μL/min of 1 M ethanolamine, pH 8.0. GST-CK2α (50 μg/ml) was immobilized on the surface at a flow rate of 5 μL/min in HBS (10 mM Hepes pH 7.3, 0.15 M NaCl, 3 mM EDTA, 0.005% polysorbate 20). MBP-CK2β diluted at 50 μg/ml in HBS buffer was injected over the surface at a flow rate of 5 μL/min in presence of various compound 1 concentration. Regeneration of the surfaces was achieved by injection of 10 mM glycine-HCl pH 2.2. SPR binding studies (Supplementary Fig. S7) were performed using a Reichert SR7000DC instrument optical biosensor (Reichert Technologies) equipped with a CMD500m sensor chip obtained from XanTec Bioanalytics. CK2α was immobilized by a capturing approach using a monoclonal anti-GST antibody (27 kDa, Clone GST-R 6G9 produced in rat, SAB4200055 Sigma Aldrich). Prior to use, the anti-GST antibodies were purified twice by micro dialysis at 4 °C (Membrane: dialysis tubing benzoylated, 9 mm, D2272-5FT) in 10 mM sodium acetate, pH = 5. Anti-GST antibodies were immobilized using amine-coupling chemistry at 12 °C. The surfaces of all two flow cells were activated for 7 min with a 1:1 mixture of 0.1 M NHS (N-hydroxysuccinimide) and 0.1 M EDC (3-(N,N-dimethylamino) propyl-N-ethylcarbodiimide) at a flow rate of 10 μL/min. The antibody at a concentration of 30 μg/mL in 10 mM sodium acetate, pH 5.0, was immobilized at a density of 2000 RU on flow cell 2; flow cell 1 was left blank to serve as a reference surface. All the surfaces were blocked with a 3 min injection at 10 μL/min of 1 M ethanolamine, pH 8.0. GST tagged CK2α at a concentration of 50 μg/mL in 10 mM HEPES, 150 mM NaCl, 3 mM EDTA, 0.005% (v/v) polysorbate 20, pH = 7.4 was captured at a density of 900 RU on flow cell 2. In order to collect kinetic binding data, analytes in 10 mM HEPES, 150 mM NaCl, 3 mM EDTA, 0.005% (v/v) polysorbate 20, 1% DMSO (v/v), 100 μM ATP, pH = 7.4 were injected over the two flow cells at concentrations of 50, 25, 12.5, 6.25, 3.12, 1.56 μM at a flow rate of 25 μL/min and at a temperature of 25 °C. The complex was allowed to associate and dissociate for 120 s. Duplicate injections (in random order) of each sample and a buffer blank were flowed over the two surfaces. Affinities were obtained after treatments (DMSO calibration, blank and references subtractions) using the software Scrubber 2.0c.
Fig. S7. Binding kinetics of compounds 2-6 by surface plasmon resonance. For each compound, sensorgrams (black line) and global fits (orange line) are depicted with the corresponding chemical structure and the fitted kinetics parameters. Experiments show representative data of two identical repeats.

[4] = system: MCF10A cells; experiment: Cell growth inhibition (IncuCyte); format: cell-based, human; details: 24 h
Method: Cells grown on 96-well flat-bottomed plates (Corning Falcon) were tracked using an Essen IncuCyte Zoom live-cell microscopy instrument, an automated live cell imager with high-throughput capabilities and built-in data analysis. Experiments were conducted at 37 °C and 5% CO2. The software incorporated into the IncuCyte Zoom was used to analyze the images.
MCF10A and MDA-MB231 cells were seeded into 96-well plates at a density (1 × 10^4 and 2 × 10^4 cells/well, respectively) and allowed to attach overnight. Bright field images were captured every 3 h for the duration of the experiment. The detection software was calibrated specifically for MCF10A and MDA-MB231 to ensure accurate distinction of cells from empty space. Cell proliferation data were obtained by the cell confluence increment in each of the treatments and expressed as percentage relative to that of control cells.
Fig. S9. […] (a) MCF10A cells were incubated with increasing concentrations of 6 for 24 h. (b) Inset: western blot analysis of CK2 subunits in parental MCF10A cells (WT) or CK2β knockdown MCF10A cells (∆CK2β). Uncropped blots are shown in Supplementary Fig. S16. MCF10A WT (r,p) or MCF10A ∆CK2β (○,●) were incubated with DMSO (r,○) or 50 μM 6 (p,●) for the indicated time. Cell growth was monitored using an Essen IncuCyte Zoom live-cell microscopy incubator. Images were captured every 15 min for the duration of the experiment. […]

[5] = target: [35S]methionine-labeled CK2α (human) (UniProt P68400); experiment: radioligand binding; biotinylated MBP-CK2β (250 ng/well) on streptavidin-coated 96-well plates; soluble [35S]methionine-labeled CK2α (10^5 cpm) with or without competitor; 50 mM Tris/HCl pH 7.2, 0.4 M NaCl; 1 h at room temperature, washed three times, scintillation counting
Sequence of [35S]methionine-labeled CK2α (human) (P68400 whole entry): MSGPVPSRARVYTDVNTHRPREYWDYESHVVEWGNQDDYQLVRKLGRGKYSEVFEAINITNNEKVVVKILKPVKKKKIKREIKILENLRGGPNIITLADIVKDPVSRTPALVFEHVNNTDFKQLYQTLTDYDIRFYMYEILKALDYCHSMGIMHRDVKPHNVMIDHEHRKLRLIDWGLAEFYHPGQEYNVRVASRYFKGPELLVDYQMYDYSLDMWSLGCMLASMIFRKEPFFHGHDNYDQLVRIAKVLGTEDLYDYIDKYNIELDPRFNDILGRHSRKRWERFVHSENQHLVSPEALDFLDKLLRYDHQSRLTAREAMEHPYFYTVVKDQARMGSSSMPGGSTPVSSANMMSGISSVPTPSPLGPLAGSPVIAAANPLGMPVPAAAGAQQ

Sequence of CK2α (P68400 whole entry): as above
T1 sequence (P68400 whole entry): as above

In the case of `O=C(O)c1ccc2c(c1)nc(Nc1cccc(Cl)c1)c1ccncc12` [CX-4945], the Gini coefficient [1] is given as 0.62.

For `CS(=O)(=O)NCCN1CCC(COC(=O)c2c[nH]c3ccc(F)cc23)CC1` [Compound 2, (1-(2-(Methylsulfonamido)ethyl)piperidin-4-yl)methyl 5-fluoro-1H-indole-3-carboxylate hydrochloride], the inhibition at 50 µM [2] was 25% and the Kd [3] was 44 ± 6 µM.

For `O=C(OCC1CCN(CCNS(=O)(=O)c2ccccc2)CC1)c1c[nH]c2ccc(F)cc12` [Compound 5, (1-(2-(Phenylsulfonamido)ethyl)piperidin-4-yl)methyl 5-fluoro-1H-indole-3-carboxylate hydrochloride], the inhibition at 50 µM [2] was 66% and the Kd [3] was 43 ± 2 µM.

`COc1[nH]c2ccc(F)cc2c1C(=O)OCC1CCN(CCNS(=O)(=O)c2ccccc2)CC1.Cl` [Compound 6, 1-(2-(Phenylsulfonamido)ethyl)piperidin-4-yl)methyl 5-fluoro-2-methoxy-1H-indole-3-carboxylate hydrochloride] gave a Kd [3] of 30 ± 2 µM and a GI50 [4] of 22 ± 3 µM.

CK2β-derived cyclic peptide, Pc gave a percent inhibition of CK2α/CK2β complex formation at 60 μM [5] of 90%.
